Laboratory results taken from the NIST ThermoML archive (doi:10.1016/j.jct.2012.10.004).
Numbers after ± are expanded uncertainties.

Settings: Liquid, Vibrating tube method

SMILES: CCCC[N+]1(C)CCCC1.O=S(=O)([N-]S(=O)(=O)C(F)(F)F)C(F)(F)F
- mass density (278.15 K, 100 kPa): 1415.1 ± 1.4 kg/m3
- mass density (278.15 K, 1000 kPa): 1415.7 ± 1.4 kg/m3
- mass density (278.15 K, 10000 kPa): 1421.5 ± 1.4 kg/m3
- mass density (278.15 K, 20000 kPa): 1428 ± 1.5 kg/m3
- mass density (278.15 K, 40000 kPa): 1439.8 ± 1.6 kg/m3
- mass density (278.15 K, 60000 kPa): 1450.6 ± 1.8 kg/m3
- mass density (278.15 K, 80000 kPa): 1460.8 ± 2.1 kg/m3
- mass density (278.15 K, 100000 kPa): 1470.2 ± 2.3 kg/m3
- mass density (278.15 K, 120000 kPa): 1479.1 ± 2.6 kg/m3
- mass density (298.15 K, 100 kPa): 1395.2 ± 1.4 kg/m3
- mass density (298.15 K, 1000 kPa): 1395.8 ± 1.4 kg/m3
- mass density (298.15 K, 10000 kPa): 1401.8 ± 1.4 kg/m3
- mass density (298.15 K, 20000 kPa): 1408.4 ± 1.5 kg/m3
- mass density (298.15 K, 40000 kPa): 1420.7 ± 1.6 kg/m3
- mass density (298.15 K, 60000 kPa): 1432.2 ± 1.8 kg/m3
- mass density (298.15 K, 80000 kPa): 1442.8 ± 2 kg/m3
- mass density (298.15 K, 100000 kPa): 1452.9 ± 2.3 kg/m3
- mass density (298.15 K, 120000 kPa): 1462.9 ± 2.6 kg/m3
- mass density (313.15 K, 100 kPa): 1381.6 ± 1.4 kg/m3
- mass density (313.15 K, 1000 kPa): 1382.3 ± 1.4 kg/m3
- mass density (313.15 K, 10000 kPa): 1388.8 ± 1.4 kg/m3
- mass density (313.15 K, 20000 kPa): 1395.8 ± 1.5 kg/m3
- mass density (313.15 K, 40000 kPa): 1408.7 ± 1.6 kg/m3
- mass density (313.15 K, 60000 kPa): 1420.7 ± 1.8 kg/m3
- mass density (313.15 K, 80000 kPa): 1431.6 ± 2 kg/m3
- mass density (313.15 K, 100000 kPa): 1441.8 ± 2.2 kg/m3
- mass density (313.15 K, 120000 kPa): 1451.8 ± 2.5 kg/m3
- mass density (333.15 K, 100 kPa): 1364 ± 1.4 kg/m3
- mass density (333.15 K, 1000 kPa): 1364.7 ± 1.4 kg/m3
- mass density (333.15 K, 10000 kPa): 1371.6 ± 1.4 kg/m3
- mass density (333.15 K, 20000 kPa): 1379 ± 1.5 kg/m3
- mass density (333.15 K, 40000 kPa): 1392.6 ± 1.6 kg/m3
- mass density (333.15 K, 60000 kPa): 1405.2 ± 1.7 kg/m3
- mass density (333.15 K, 80000 kPa): 1416.6 ± 2 kg/m3
- mass density (333.15 K, 100000 kPa): 1427.4 ± 2.2 kg/m3
- mass density (333.15 K, 120000 kPa): 1437.6 ± 2.5 kg/m3
- mass density (348.15 K, 100 kPa): 1351.1 ± 1.4 kg/m3
- mass density (348.15 K, 1000 kPa): 1351.8 ± 1.4 kg/m3
- mass density (348.15 K, 10000 kPa): 1359.1 ± 1.4 kg/m3
- mass density (348.15 K, 20000 kPa): 1366.9 ± 1.5 kg/m3
- mass density (348.15 K, 40000 kPa): 1381.1 ± 1.6 kg/m3
- mass density (348.15 K, 60000 kPa): 1394 ± 1.7 kg/m3
- mass density (348.15 K, 80000 kPa): 1405.9 ± 1.9 kg/m3
- mass density (348.15 K, 100000 kPa): 1416.9 ± 2.2 kg/m3
- mass density (348.15 K, 120000 kPa): 1427.5 ± 2.4 kg/m3
- mass density (373.15 K, 100 kPa): 1330.5 ± 10 kg/m3
- mass density (373.15 K, 1000 kPa): 1330.8 ± 10 kg/m3
- mass density (373.15 K, 10000 kPa): 1338.6 ± 10 kg/m3
- mass density (373.15 K, 20000 kPa): 1347 ± 10 kg/m3
- mass density (373.15 K, 40000 kPa): 1362.2 ± 10 kg/m3
- mass density (373.15 K, 60000 kPa): 1375.9 ± 10 kg/m3
- mass density (373.15 K, 80000 kPa): 1388.3 ± 10 kg/m3
- mass density (373.15 K, 100000 kPa): 1399.9 ± 10 kg/m3
- mass density (373.15 K, 120000 kPa): 1410.9 ± 10 kg/m3
- mass density (398.15 K, 100 kPa): 1307.8 ± 10 kg/m3
- mass density (398.15 K, 1000 kPa): 1308.7 ± 10 kg/m3
- mass density (398.15 K, 10000 kPa): 1316.4 ± 10 kg/m3
- mass density (398.15 K, 20000 kPa): 1325.3 ± 10 kg/m3
- mass density (398.15 K, 40000 kPa): 1341.7 ± 10 kg/m3
- mass density (398.15 K, 60000 kPa): 1356.3 ± 10 kg/m3
- mass density (398.15 K, 80000 kPa): 1369.7 ± 10 kg/m3
- mass density (398.15 K, 100000 kPa): 1382 ± 10 kg/m3
- mass density (398.15 K, 120000 kPa): 1393.5 ± 10 kg/m3
